In patent publication US20240190864A1 (YA THERAPEUTICS INC, priority 2021, published 2024) one finds IC50 data, which are given here for 21 compounds.

Some results are limits rather than exact numbers.

In one test the target is BTK (Homo sapiens, UniProt Q06187). Briefly: BTK Kinase Test. The format is biochemical. The following applies: BTK kinase inhibitory activity; enzyme with compound 30 min, ATP 50 μM, ULight poly GT substrate. As to the method:
Dilute 350 ng/uL BTK mother solution with kinase buffer solution (50 mM HEPES, 10 mM MgCl2, 2 mM DTT, 1 mM EGTA, 0.01% Tween 20), and add 6 μL 1.67×0.134 ng/μL working solution (final concentration 0.08 ng/μL), using the nanoliter sampler, add different compounds dissolved by DMSO into the pores, so that the final concentration of the compound is 1000 nM-0.244 nM, and the final concentration of the positive drug is 50 nM-0.0122 nM. Four times the gradient, a total of seven concentrations are available. At the same time, set up blank control pores (without enzyme) and negative control pores (with enzyme, with solvent DMSO), and set up two double pores. After the enzyme reacts with compound or solvent for 30 min, 5×250 μM ATP (final concentration is 50 μM) and 5×0.5 μM Substrate (final concentration 0.1 μμM. ULight poly GT), mix at 1:1, 4 per hole μL is added into the hole; after sealing, add […] to each hole after reacting at room temperature for 2 hours μL 4×8 nM detection reagent (final concentration is 2 nM, Ab), incubate at room temperature for 1 hour; PE instrument reading board (excitation […], emission 665 nm). Calculate the inhibition rate and calculate the IC50 value.

The subject of test [1] is Diffuse large B cell lymphoma cell strain TMD-8. Briefly: Tumor Cell Proliferation Inhibition Assay (CellTiter-Glo). It counts as cell-based. As to conditions: Homo sapiens, TMD8; TMD-8 cells, incubated with compound 72 hours, 10% fetal calf serum, ATP content. As for the experimental part: Cell viability was evaluated by measuring a content of triphosadenine (ATP) by using CellTiter-Glo luminescent cell viability assay kit method (Promega, #G7572, Madison, WI). Diffuse large B cell lymphoma cell strain TMD-8 cell strain is purchased from American Type Culture Collection (ATCC). After the cells were digested from a cell culture dish by pancreatin and re-suspended by DPBS culture medium, a Scepter automatic cell counter (Millipore, #PHCC00000) was used for counting to measure a cell density. The cells were diluted to be a solution containing 44,000 cells per milliliter. The cell solution with the adjusted density was added into a cell assay plate with 90 μl per well. The well plate was placed to an incubator with 5% CO2 at 37° C. to be incubated for 24 hours and then added with the compound to be tested with different concentrations. The cells and the compound were together incubated for 72 hours in the presence of 10% fetal calf serum. The content of ATP was measured by using CellTiter-Glo® Luminescent Cell Viability Assay kit (referring to manufacturer's instruction) to evaluate the inhibition to the cell growth. Briefly speaking, each well was added with 30 μl of CellTiter-Glo® reagent, the plate was shaken for 10 minutes to induce the cells to be lysed, and fluorescence signal was detected and recorded by fluorescence/chemiluminescence analyzer Fluoroskan Ascent FL (Thermo Scientific Fluoroskan Ascent FL). The maximal signal value was obtained from cells processed by dimethyl sulfoxide (DMSO) for 72 or 120 hours. The minimal signal value obtained from separate culture medium (wherein the number of cells was zero) was defined as 0. Inhibition ratio %=(maximal signal value−compound signal value)/(maximal signal value−minimal signal value)×100%. The data was processed by using GraphPad Prism V5.0 (GraphPad Software, San Diego, CA) software. IC50 value was fitted and calculated via S-shaped dose-response curve.

BTK, sequence (Q06187 whole entry): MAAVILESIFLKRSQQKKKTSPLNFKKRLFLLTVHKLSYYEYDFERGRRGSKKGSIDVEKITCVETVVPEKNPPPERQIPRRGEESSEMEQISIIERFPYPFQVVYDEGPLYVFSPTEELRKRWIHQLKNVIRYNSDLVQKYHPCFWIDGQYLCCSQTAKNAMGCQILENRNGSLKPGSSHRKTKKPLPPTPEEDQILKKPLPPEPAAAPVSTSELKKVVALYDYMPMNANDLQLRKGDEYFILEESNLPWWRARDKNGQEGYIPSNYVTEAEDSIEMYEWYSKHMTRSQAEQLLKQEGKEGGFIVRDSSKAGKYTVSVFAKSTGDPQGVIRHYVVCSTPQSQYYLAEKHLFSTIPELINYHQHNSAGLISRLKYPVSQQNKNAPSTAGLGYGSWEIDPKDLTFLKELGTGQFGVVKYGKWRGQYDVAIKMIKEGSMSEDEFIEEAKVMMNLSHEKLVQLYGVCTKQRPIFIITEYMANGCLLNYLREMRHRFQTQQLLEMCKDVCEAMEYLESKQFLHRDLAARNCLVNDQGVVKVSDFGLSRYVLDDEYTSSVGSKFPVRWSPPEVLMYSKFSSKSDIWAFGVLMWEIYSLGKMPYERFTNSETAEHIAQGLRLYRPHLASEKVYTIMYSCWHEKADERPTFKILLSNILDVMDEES

Turning to `CC#CC(=O)N[C@H]1CCCN(c2nc(-c3ccc(Oc4ccccc4)cc3)c(C(N)=O)c3[nH]c(=O)[nH]c23)C1` [Compound 1, (S)-4-(3-(but-2-ynamido)piperidin-1-yl)-2-oxo-6-(4-phenoxyphenyl)-2,3-dihydro-1H-imidazo[4,5-c]pyridine-7-carboxamide], at BTK, the IC50 was at most 10 nM.

In the case of `CC#CC(=O)N[C@H]1CCCN(c2nc(-c3ccc(Oc4ccccc4)cc3)c(C(N)=O)c3[nH]ncc23)C1` [Compound 2, (S)-4-(3-(but-2-ynamido)piperidin-1-yl)-6-(4-phenoxyphenyl)-1H-pyrazolo [4,5-c]pyridine-7-carboxamide], the IC50 at BTK is at most 10 nM.

In the case of `C=CC(=O)N[C@H]1CCCN(c2nc(-c3ccc(Oc4ccccc4)cc3)c(C(N)=O)c3[nH]c(=O)[nH]c23)C1` [Compound 3, (S)-4-(3-acrylamidopiperidin-1-yl)-2-oxo-6-(4-phenoxyphenyl)-2,3-dihydro-1H-imidazo[4,5-c]pyridine-7-carboxamide], the IC50 at BTK is at most 10 nM.

For the compound `CC#CC(=O)N[C@H]1CCN(c2nc(-c3ccc(Oc4ccccc4)cc3)c(C(N)=O)c3[nH]c(=O)[nH]c23)C1` [Compound 5, (S)-4-(3-(but-2-ynamido)pyrrolidin-1-yl)-2-oxo-6-(4-phenoxyphenyl)-2,3-dihydro-1H-imidazo[4,5-c]pyridine-7-carboxamide], the IC50 at BTK was at most 10 nM.

Consider `CC#CC(=O)N[C@@H]1CCCN(c2nc(-c3ccc(Oc4ccccc4)cc3)c(C(N)=O)c3[nH]c(=O)[nH]c23)C1` [Compound 6, (R)-4-(3-(but-2-ynamido)piperidin-1-yl)-2-oxo-6-(4-phenoxyphenyl)-2,3-dihydro-1H-imidazo[4,5-c]pyridine-7-carboxamide], for which the IC50 at BTK was at most 10 nM.

Turning to `CC#CC(=O)N[C@@H]1CCN(c2nc(-c3ccc(Oc4ccccc4)cc3)c(C(N)=O)c3[nH]c(=O)[nH]c23)C1` [Compound 9, (R)-4-(3-(but-2-ynamido)pyrrolidin-1-yl)-2-oxo-6-(4-phenoxyphenyl)-2,3-dihydro-1H-imidazo[4,5-c]pyridine-7-carboxamide], the IC50 at BTK was at most 10 nM.

Regarding `CC#CC(=O)N[C@H]1CCCN(c2nc(-c3ccc(Oc4ccccc4)cc3)c(C(N)=O)c3[nH]cnc23)C1` [Compound 18, (S)-4-(3-(but-2-ynamido)piperidin-1-yl)-6-(4-phenoxyphenyl)-1H-imidazo[4,5-c]pyridine-7-carboxamide], the IC50 at BTK is at most 10 nM.

Take `CC#CC(=O)N[C@H]1CCCN(c2nc(-c3ccc(Oc4ccccc4)cc3)c(C(N)=O)c3[nH]c(C)nc23)C1` [Compound 19, (S)-4-(3-(but-2-ynamido)piperidin-1-yl)-2-methyl-6-(4-phenoxyphenyl)-1H-imidazo[4,5-c]pyridine-7-carboxamide]: at BTK, the IC50 is at most 10 nM.

Take `C=CC(=O)N1CCC(c2nc(-c3ccc(Oc4ccccc4)cc3)c(C(N)=O)c3[nH]c(=O)[nH]c23)CC1` [Compound 20, 4-(1-acryloylpiperidin-4-yl)-2-oxo-6-(4-phenoxyphenyl)-2,3-dihydro-1H-imidazo[4,5-c]pyridine-7-carboxamide]: at BTK, the IC50 is at most 10 nM.

Regarding `CC#CC(=O)N[C@H]1CCCN(c2nc(-c3ccc(Oc4ccccc4)cc3)c(C(N)=O)c3[nH]ccc23)C1` [Compound 23, (S)-4-(3-(but-2-ynamido)piperidin-1-yl)-6-(4-phenoxyphenyl)-1H-pyrrolo[3,2-c]pyridine-7-carboxamide], the IC50 (at BTK; in test [1]) was at most 10 nM throughout.

Turning to `CC#CC(=O)N[C@@H]1CCCN(c2nc(-c3ccc(Oc4ccccc4)cc3)c(C(N)=O)c3[nH]ccc23)C1` [Compound 24, (R)-4-(3-(but-2-ynamido)piperidin-1-yl)-6-(4-phenoxyphenyl)-1H-pyrrolo[3,2-c]pyridine-7-carboxamide], the IC50 on BTK was at most 10 nM.

Regarding `C=CC(=O)N1CCC(c2nc(-c3ccc(Oc4ccccc4)cc3)c(C(N)=O)c3[nH]ccc23)CC1` [Compound 25, 4-(1-acryloylpiperidin-4-yl)-6-(4-phenoxyphenyl)-1H-pyrrolo [3,2-c]pyridine-7-carboxamide], the IC50 (at BTK; in test [1]) was at most 10 nM in each case.

`C=CC(=O)N1CCC[C@H](c2nc(-c3ccc(Oc4ccccc4)cc3)c(C(N)=O)c3[nH]ccc23)C1` [Compound 26, (S)-4-(1-acryloylpiperidin-3-yl)-6-(4-phenoxyphenyl)-1H-pyrrolo[3,2-c]pyridine-7-carboxamide]: the IC50 (at BTK; in test [1]) was at most 10 nM throughout.

Consider `C=CC(=O)N1CCC[C@@H](c2nc(-c3ccc(Oc4ccccc4)cc3)c(C(N)=O)c3[nH]ccc23)C1` [Compound 27, (R)-4-(1-acryloylpiperidin-3-yl)-6-(4-phenoxyphenyl)-1H-pyrrolo[3,2-c]pyridine-7-carboxamide], for which the IC50 (on BTK; in test [1]) was at most 10 nM in each case.

With `CC#CC(=O)N[C@H]1CCCN(c2ncc(C(N)=O)c3[nH]c(=O)c(=O)[nH]c23)C1` [Compound 28, (S)-5-(3-(but-2-ynamido)piperidin-1-yl)-2,3-dioxo-1,2,3,4-tetrahydropyrido[3,4-b]pyrazine-8-carboxamide], on BTK, the IC50 is at most 10 nM.

Turning to `CC#CC(=O)N[C@H]1CCCN(c2ncc(C(N)=O)c3[nH]cnc23)C1` [Compound 36, (S)-4-(3-(but-2-ynamido)piperidin-1-yl)-1H-imidazo[4,5-c]pyridine-7-carboxamide], the IC50 at BTK was at most 10 nM.

On to `CC#CC(=O)N[C@H]1CCCN(c2ncc(C(N)=O)c3[nH]c(=O)[nH]c23)C1` [Compound 38, (S)-4-(3-(but-2-ynamido)piperidin-1-yl)-2-oxo-2,3-dihydro-1H-imidazo[4,5-c]pyridine-7-carboxamide], for which the IC50 (at BTK; in test [1]) was at most 10 nM throughout.

Turning to `C=CC(=O)N1CCC(c2ncc(C(N)=O)c3[nH]c(=O)[nH]c23)CC1` [Compound 40, 4-(1-acryloylpiperidin-4-yl)-2-oxo-2,3-dihydro-1H-imidazo[4,5-c]pyridine-7-carboxamide], the IC50 (at BTK; in test [1]) was at most 10 nM in each case.

Consider “(R)-4-(3-(but-2-ynamido)piperidin-1-yl)-6-(4-phenoxyphenyl)-1H-pyrazolo [4,3-c]pyridine-7-carboxamide [Compound 7]”, for which, at BTK, the 50% inhibitory concentration (IC50) is at most 10 nM.

As for “(R)-4-(3-acrylamidopiperidin-1-yl)-2-oxo-6-(4-phenoxyphenyl)-2,3-dihydro-1H-imidazo[4,5-c]pyridine-7-carboxamide [Compound 8]”, the IC50 at BTK was at most 10 nM.

As to “(S)-4-(3-acrylamidopyrrolidin-1-yl)-2-oxo-6-(4-phenoxyphenyl)-2,3-dihydro-1H-imidazo[4,5-c]pyridine-7-carboxamide [Compound 4]”, the IC50 on BTK is at most 10 nM.

What is called IC50 is the concentration that gives 50% inhibition.
